Patent US12139498B1, “Positive allosteric modulators of the muscarinic acetylcholine receptor M4” (Vanderbilt University, priority 2023, dated 2024)

Molecular target: T1, Human M4 (Homo sapiens, UniProt P08173)
T1 sequence (P08173 1-479): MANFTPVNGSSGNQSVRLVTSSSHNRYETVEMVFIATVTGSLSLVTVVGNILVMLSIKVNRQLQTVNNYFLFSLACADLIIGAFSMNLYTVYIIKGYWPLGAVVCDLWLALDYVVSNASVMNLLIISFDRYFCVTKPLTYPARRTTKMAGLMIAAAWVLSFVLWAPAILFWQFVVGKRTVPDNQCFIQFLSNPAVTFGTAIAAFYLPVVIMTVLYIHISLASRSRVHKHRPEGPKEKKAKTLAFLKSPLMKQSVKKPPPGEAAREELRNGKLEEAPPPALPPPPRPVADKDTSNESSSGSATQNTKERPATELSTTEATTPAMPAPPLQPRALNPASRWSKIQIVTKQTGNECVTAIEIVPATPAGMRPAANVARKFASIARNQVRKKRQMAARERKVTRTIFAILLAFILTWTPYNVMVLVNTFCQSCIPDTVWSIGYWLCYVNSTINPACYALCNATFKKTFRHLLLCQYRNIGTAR
Assay: M4 cell-based functional assay (calcium mobilization)
Design: expressed in transfected cells
Settings: for Emax at 30 µM: % ACh maximum at 30 μM; for EC50: CHO-K1 hM4-Gqi5 cells, calcium flux, increase in EC20 acetylcholine response
Experimental: Human (h) and rat (r) M4 CDNAs, along with the chimeric G protein Gqi5, were transfected into Chinese hamster ovary (CHO-K1) cells purchased from the American Type Culture Collection using Lipofectamine2000. The transfected cells were subjected to selection antibiotic treatment to generate stable cell lines; G418 sulfate (1 mg/ml) for selecting M4 expressing cells and Hygromycin B (500 μg/mL) for selecting Gqi5 expressing cells. The resulting polyclones were further screened to obtain monoclones of hM4-Gqi5 and rM4-Gqi5 for compound screening assay. Stable monoclone cells were maintained in Ham's F-12 medium containing 10% heat-inactivated fetal bovine serum (FBS), 1× Antibiotic/Antimycotic, 20 mM HEPES, 500 μg/mL G418 sulfate, and 200 μg/mL Hygromycin B in 37° C. humidified incubators in the presence of 5% CO2.
The high throughput assay was employed to measure receptor-induced mobilization of intracellular calcium to determine compound activity. Test compound was added to cells expressing the muscarinic receptors that were loaded with calcium sensitive fluorescent dye. After a ˜2.5 minute incubation period, a submaximal (EC20) concentration of acetylcholine was added, and the response measured. This kinetic assay allows for simultaneous screening and potency determination of multiple pharmacological modes of action including agonist and potentiator activity. CHO-K1 cells stably expressing muscarinic receptors were plated in growth medium lacking G418 and hygromycin at 15,000 cells/20 μL/well in Greiner 384-well black-walled, tissue culture (TC)-treated, clear-bottom plates (Greiner Bio-One). Cells were incubated overnight at 37° C. and 5% CO2. The next day, calcium assay buffer (Hank's balanced salt solution (HBSS), 20 mM HEPES, 2.5 mM Probenecid, 4.16 mM sodium bicarbonate (Sigma-Aldrich, St. Louis, MO)) was prepared to dilute compounds, agonists, and Fluo-4-acetomethoxyester (Fluo-4-AM), fluorescent calcium indicator dye. Compounds were serially diluted 1:3 into 10 point concentration response curves in DMSO using the Bravo Liquid Handler (Agilent, Santa Clara, CA), transferred to a 384 well daughter plates using an Echo acoustic liquid handler (Beckman Coulter, Indianapolis, Indiana), and diluted in assay Buffer to a 2× final concentration. The agonist plates were prepared using acetylcholine (ACh, Sigma-Aldrich, St. Louis, MO) concentrations for the EC20 and ECMAX responses by diluting in assay buffer to a 5× final concentration. The 2× dye solution (2.3 μM) was prepared by mixing a 2.3 mM Fluo-4-AM stock in DMSO with 10% (w/v) pluronic acid F-127 in a 1:1 ratio in assay buffer. Using a microplate washer (BioTek, Winooski, VT), cells were washed with assay buffer for 3 times to remove medium. After the final wash, 20 μL of assay buffer remained in the cell plates. Immediately, 20 μL of the 2× dye solution (final 1.15 μM) was added to each well of the cell plate using a Multidrop Combi dispenser (Thermo Fisher, Waltham, MA). After cells were incubated with the dye solutions for 45 min at 37° C. in the presence of 5% CO2, the dye solutions were removed and replaced with assay buffer using a microplate washer, leaving 20 μL of assay buffer in the cell plate.
The prepared compound, agonist, and cell plates were placed inside the Functional Drug Screening System uCell (FDSS uCell, Hamamatsu, Japan) to measure the calcium flux.
The triple add protocol was used to measure Ca kinetics; Compound, ACh for EC2O, and ACh for EC80 adds in an order. Briefly, after establishment of a fluorescence baseline for 2 seconds (excitation, 480 nm; emission, 530 nm), first add occurred by adding 20 μL of test compound to the cells, and the response was measured for 140 seconds. This is followed by second add; 10 μL (5×) of an EC20 concentration of ACh agonist was added to the cells, and the response of the cells was measured for 125 seconds. […]

| Structure (SMILES) | Emax at 30 µM | EC50 |
| --- | --- | --- |
| Cc1cc2nccnc2nc1N1CCc2nc(C3CC3(C)C)sc2C1 (stereo not shown) [Compound 63, 2-(2,2-dimethylcyclopropyl)-5-(7-methylpyrido[2,3-b]pyrazin-6-yl)-4,5,6,7-tetrahydrothiazolo[5,4-c]pyridine] | 63% | 738 nM |
| Cc1cc2nc(C(F)F)cc(=O)n2nc1N1CCc2nc(Br)sc2C1 [Compound 39, 7-(2-bromo-6,7-dihydrothiazolo[5,4-c]pyridin-5(4H)-yl)-2-(difluoromethyl)-8-methyl-4H-pyrimido[1,2-b]pyridazin-4-one] | 88% | 75 nM |
| Cc1c(N2CCc3nc(C4CC4)sc3C2)nc2nn(CC3CC(F)(F)C3)c(=O)n2c1C [Compound 76, 7-(2-cyclopropyl-6,7-dihydrothiazolo[5,4-c]pyridin-5(4H)-yl)-2-((3,3-difluorocyclobutyl)methyl)-5,6-dimethyl-[1,2,4]triazolo[4,3-a]pyrimidin-3(2H)-one] | 105% | 87 nM |
| Cc1nc2c(s1)CN(c1nc3nccnc3cc1C)CC2 [Compound 57, 2-methyl-5-(7-methylpyrido[2,3-b]pyrazin-6-yl)-4,5,6,7-tetrahydrothiazolo[5,4-c]pyridine] | 90% | 666 nM |
| Cc1c(C#N)nnc(N2CCc3nc(C#N)sc3C2)c1C [Compound 13, 5-(6-cyano-4,5-dimethylpyridazin-3-yl)-4,5,6,7-tetrahydrothiazolo[5,4-c]pyridine-2-carbonitrile] | 78% | 1210 nM |
| Cc1c(N2CCc3nc(C4(C)CC4)sc3C2)nc2n[nH]c(=O)n2c1C [Compound 68, 5,6-dimethyl-7-(2-(1-methylcyclopropyl)-6,7-dihydrothiazolo[5,4-c]pyridin-5(4H)-yl)-[1,2,4]triazolo[4,3-a]pyrimidin-3(2H)-one] | 97% | 40 nM |
| Cc1cc(C#N)cnc1N1CCc2ncsc2C1 [Compound 17, 6-(6,7-dihydrothiazolo[5,4-c]pyridin-5(4H)-yl)-5-methylnicotinonitrile] | 92% | 3170 nM |
| Cc1ccc2ncnc(N3CCc4nc(Br)sc4C3)c2c1 [Compound 30, 2-bromo-5-(6-methylquinazolin-4-yl)-4,5,6,7-tetrahydrothiazolo[5,4-c]pyridine] | 91% | 147 nM |
| Cc1cc(=O)n2nc(N3CCc4nc(Br)sc4C3)c(C)cc2n1 [Compound 35, 7-(2-bromo-6,7-dihydrothiazolo[5,4-c]pyridin-5(4H)-yl)-2,8-dimethyl-4H-pyrimido[1,2-b]pyridazin-4-one] | 89% | 291 nM |
| Cc1coc2ncnc(N3CCc4nc(Br)sc4C3)c12 [Compound 22, 4-(2-bromo-6,7-dihydrothiazolo[5,4-c]pyridin-5(4H)-yl)-5-methylfuro[2,3-d]pyrimidine] | 96% | 106 nM |
| Cc1cc2nc(C(=O)NC3CC(CC(F)(F)F)C3)cc(=O)n2nc1N1CCc2nc(Br)sc2C1 (stereo not shown) [Compound 48, 7-(2-bromo-6,7-dihydrothiazolo[5,4-c]pyridin-5(4H)-yl)-8-methyl-4-oxo-N-(3-(2,2,2-trifluoroethyl)cyclobutyl)-4H-pyrimido[1,2-b]pyridazine-2-carboxamide] | 87% | 2180 nM |
| Cc1c(N2CCc3nc(C4(F)CC4)sc3C2)nc2nn(CC3CC3)c(=O)n2c1C [Compound 78, 2-(cyclopropylmethyl)-7-(2-(1-fluorocyclopropyl)-6,7-dihydrothiazolo[5,4-c]pyridin-5(4H)-yl)-5,6-dimethyl-[1,2,4]triazolo[4,3-a]pyrimidin-3(2H)-one] | 109% | 18 nM |
| Cc1nc2c(s1)CN(c1ncc(C#N)cc1C)CC2 [Compound 15, 5-methyl-6-(2-methyl-6,7-dihydrothiazolo[5,4-c]pyridin-5(4H)-yl)nicotinonitrile] | 87% | 371 nM |
| Cc1noc2ncnc(N3CCc4nc(Br)sc4C3)c12 [Compound 25, 4-(2-bromo-6,7-dihydrothiazolo[5,4-c]pyridin-5(4H)-yl)-3-methylisoxazolo[5,4-d]pyrimidine] | 113% | 1290 nM |
| Cc1nc(N2CCc3nc(Br)sc3C2)c2cc(F)ccc2n1 [Compound 33, 2-bromo-5-(6-fluoro-2-methylquinazolin-4-yl)-4,5,6,7-tetrahydrothiazolo[5,4-c]pyridine] | 99% | 79 nM |
| Cc1cc2nc(C)c(C)c(=O)n2nc1N1CCc2nc(Br)sc2C1 [Compound 38, 7-(2-bromo-6,7-dihydrothiazolo[5,4-c]pyridin-5(4H)-yl)-2,3,8-trimethyl-4H-pyrimido[1,2-b]pyridazin-4-one] | 80% | 1180 nM |
| Cc1c(N2CCc3nc(C4CC4)sc3C2)nc2n[nH]c(=O)n2c1C [Compound 72, 7-(2-cyclopropyl-6,7-dihydrothiazolo[5,4-c]pyridin-5(4H)-yl)-5,6-dimethyl-[1,2,4]triazolo[4,3-a]pyrimidin-3(2H)-one] | 91% | 5 nM |
| COc1nc2c(s1)CN(c1nnc(C#N)c(C)c1C)CC2 [Compound 8, 6-(2-methoxy-6,7-dihydrothiazolo[5,4-c]pyridin-5(4H)-yl)-4,5-dimethylpyridazine-3-carbonitrile] | 79% | 732 nM |
| Cc1cc2nc(C(F)(F)F)cc(=O)n2nc1N1CCc2nc(Br)sc2C1 [Compound 36, 7-(2-bromo-6,7-dihydrothiazolo[5,4-c]pyridin-5(4H)-yl)-8-methyl-2-(trifluoromethyl)-4H-pyrimido[1,2-b]pyridazin-4-one] | 91% | 37 nM |
| Cc1cc2nccnc2nc1N1CCc2nc(Cl)sc2C1 [Compound 61, 2-chloro-5-(7-methylpyrido[2,3-b]pyrazin-6-yl)-4,5,6,7-tetrahydrothiazolo[5,4-c]pyridine] | 68% | 414 nM |
| Cc1nc(Cl)c(C)c(N2CCc3nc(Br)sc3C2)n1 [Compound 11, 2-bromo-5-(6-chloro-2,5-dimethylpyrimidin-4-yl)-4,5,6,7-tetrahydrothiazolo[5,4-c]pyridine] | 85% | 103 nM |
| Cc1cc2nc(C)c(F)c(=O)n2nc1N1CCc2nc(Br)sc2C1 [Compound 40, 7-(2-bromo-6,7-dihydrothiazolo[5,4-c]pyridin-5(4H)-yl)-3-fluoro-2,8-dimethyl-4H-pyrimido[1,2-b]pyridazin-4-one] | 85% | 94 nM |
| Cc1cc2nc(=O)ccn2nc1N1CCc2nc(Br)sc2C1 [Compound 50, 7-(2-bromo-6,7-dihydrothiazolo[5,4-c]pyridin-5(4H)-yl)-8-methyl-2H-pyrimido[1,2-b]pyridazin-2-one] | 66% | 521 nM |
